Data set [1] relates to Staphylococcus aureus. In words: Antibacterial activity against vancomycin-resistant Staphylococcus aureus VRS2 harboring GyrA S84L and GrlA S80F mutant after 24 hrs by CLSI method. The data set is classed as functional. The following applies: VRS2, 24 h.
Data set [2] concerns Staphylococcus aureus. The data set can be described thus: Antibacterial activity against vancomycin-resistant Staphylococcus aureus VRS3 harboring GyrA S84L and GrlA S80F, E84K mutant after 24 hrs by CLSI method. The data set is classed as functional. The following applies: VRS3, 24 h.
Data set [3] concerns Staphylococcus aureus. The data set can be described thus: Antibacterial activity against vancomycin-resistant Staphylococcus aureus VRS5 harboring GyrA S84L, E88K and GrlA S80Y, E84G mutant after 24 hrs by CLSI method. Particulars: VRS5, 24 h.
For data set [4], the system named is Staphylococcus aureus. In words: Antibacterial activity against methicillin-susceptible Staphylococcus aureus after 24 hrs by CLSI method. The data set is classed as functional.
In data set [5] the test system is Staphylococcus aureus. In words: Antibacterial activity against Staphylococcus aureus after 24 hrs by CLSI method. The data set is classed as functional.
For data set [6], the system named is Staphylococcus aureus. The data set can be described thus: Antibacterial activity against community acquired methicillin-resistant Staphylococcus aureus after 24 hrs by CLSI method. The data set is classed as functional.
For data set [7], the system named is Staphylococcus aureus. In words: Antibacterial activity against vancomycin-resistant Staphylococcus aureus VRS1 harboring GyrA S84L and GrlA S80F mutant after 24 hrs by CLSI method. In kind it is functional. Particulars: VRS1, 24 h.
For data set [8], the system named is Staphylococcus aureus. The data set can be described thus: Antibacterial activity against vancomycin-resistant Staphylococcus aureus VRS6 harboring GyrA S84L and GrlA S80F, E84G mutant after 24 hrs by CLSI method. In kind it is functional. Particulars: VRS6, 24 h.
Data set [9] deals with Staphylococcus aureus. In words: Antibacterial activity against hospital acquired methicillin-resistant Staphylococcus aureus after 24 hrs by CLSI method. The data set is classed as functional.
Data set [10] relates to Staphylococcus aureus. In words: Antibacterial activity against vancomycin-intermediate Staphylococcus aureus Mu50 harboring GyrA S84L and GrlA S80F mutant after 24 hrs by CLSI method. The data set is classed as functional. Particulars: Mu50, 24 h.
Data set [11] deals with Staphylococcus aureus. In words: Antibacterial activity against vancomycin-intermediate Staphylococcus aureus after 24 hrs by CLSI method. In kind it is functional.
Data set [12] concerns Staphylococcus aureus. The data set can be described thus: Antibacterial activity against quinolone-resistant Staphylococcus aureus after 24 hrs by CLSI method. The data set is classed as functional.
Data set [13] is described as follows: AUC in human at 800 mg, iv qd after 24 hrs. In kind it is ADME, organism-based. Also on record: dose 800 mg, time < 24 hr, route intravenous. The following applies: plasma.
Data set [14] has as its system Staphylococcus aureus. In words: Antibacterial activity against vancomycin-resistant Staphylococcus aureus VRS7 harboring GyrA S84L and GrlA S80F mutant after 24 hrs by CLSI method. The data set is classed as functional, organism-based.
Data set [15] can be described thus: Ratio of AUC in human to MIC for Staphylococcus aureus after 24 hrs. In kind it is functional.
For data set [16], the system named is Staphylococcus aureus. The data set can be described thus: microbe, parasite or virus in culture. The following applies: Staphylococcus aureus, 32, 24 h.
Description: Antibacterial activity against vancomycin-susceptible methicillin-resistant Staphylococcus aureus 32 harboring GyrA S84L and GrlA S80Y mutant after 24 hrs by CLSI method
In data set [17] the test system is Staphylococcus aureus. In words: microbe, parasite or virus in culture. Particulars: Staphylococcus aureus, 34, 24 h.
Description: Antibacterial activity against vancomycin-susceptible methicillin-resistant Staphylococcus aureus 34 harboring GyrA S84L and GrlA S80F mutant after 24 hrs by CLSI method
In data set [18] the test system is Staphylococcus aureus. In words: microbe, parasite or virus in culture. Particulars: Mu3, 24 h.
Description: Antibacterial activity against vancomycin-intermediate Staphylococcus aureus Mu3 harboring GyrA S84L and GrlA S80F mutant after 24 hrs by CLSI method
The subject of data set [19] is Staphylococcus aureus. The data set can be described thus: Antibacterial activity against vancomycin-resistant Staphylococcus aureus VRS4 harboring GyrA S84L and GrlA S80F, E84K mutant after 24 hrs by CLSI method. In kind it is functional, organism-based.

≈ marks a conversion by molar mass, not a printed value. Calls of active or inactive are those of the source. The rule behind the calls is not given here.

For the compound `CN[C@H](CC(C)C)C(=O)N[C@H]1C(=O)N[C@@H](CC(N)=O)C(=O)N[C@H]2C(=O)N[C@H]3C(=O)N[C@H](C(=O)N[C@H](C(=O)O)c4cc(O)cc(O)c4-c4cc3ccc4O)[C@H](O)c3ccc(c(Cl)c3)Oc3cc2cc(c3O[C@@H]2O[C@H](CO)[C@@H](O)[C@H](O)[C@H]2O[C@H]2C[C@](C)(N)[C@H](O)[C@H](C)O2)Oc2ccc(cc2Cl)[C@H]1O` [VANCOMYCIN], the MIC turned out to be 32 µg/mL (≈ 22.1 µM) in data set [1]; 64 µg/mL (≈ 44.2 µM) in [2]; 64 µg/mL (≈ 44.2 µM) in data set [3]; 128 µg/mL (≈ 88.3 µM) in data set [7]; 128 µg/mL (≈ 88.3 µM) in data set [8]; 8 µg/mL (≈ 5.52 µM) in data set [10]. The MIC50 amounted to 1 µg/mL (≈ 0.69 µM) in data set [4]; 1 µg/mL (≈ 0.69 µM) in [5]; 1 µg/mL (≈ 0.69 µM) in data set [6]; 1 µg/mL (≈ 0.69 µM) in data set [9]; 4 µg/mL (≈ 2.76 µM) in data set [11]; 1 µg/mL (≈ 0.69 µM) in data set [12]. Moreover, the MIC90 was 1 µg/mL (≈ 0.69 µM) in [4]; 1 µg/mL (≈ 0.69 µM) in data set [5]; 1 µg/mL (≈ 0.69 µM) in [6]; 4 µg/mL (≈ 2.76 µM) in [9]; 4 µg/mL (≈ 2.76 µM) in data set [11]; 4 µg/mL (≈ 2.76 µM) in [12].
On to `C[C@H]1CCc2c(N3CCC(O)CC3)c(F)cc3c(=O)c(C(=O)O)cn1c23.N=C(N)NCCC[C@H](N)C(=O)O`, for which the MIC in data set [1] was found to be 0.5 µg/mL; in data set [2], 0.5 µg/mL; in [3] it was 8 µg/mL; in data set [16] it was 0.5 µg/mL; in data set [7], 0.5 µg/mL; in data set [17], 0.5 µg/mL. Besides, the MIC in data set [18] was 1 µg/mL; in [8], 0.5 µg/mL; in data set [10] it was 1 µg/mL. The compound also yielded an AUC at 24 h in [13] of 390 µg·h/mL. In addition, the outcome in [14] and in [19] was Active. In data set [15], the RatioAUC/MIC was found to be 58.5. Also, the MIC50 was 0.03 µg/mL in data set [4]; 0.03 µg/mL in [5]; 0.03 µg/mL in [6]; 0.5 µg/mL in data set [9]; 0.25 µg/mL in [11]; 0.5 µg/mL in [12]. The MIC90 in data set [4] amounted to 0.25 µg/mL; in [5], 1 µg/mL; in data set [6], 0.5 µg/mL; in data set [9] it was 1 µg/mL; in [11], 0.5 µg/mL; in data set [12] it was 1 µg/mL.

What is called MIC50 is the lowest concentration that inhibits either 50% of growth or 50% of the strains tested, depending on the study. Low values mean higher susceptibility, high ones lower susceptibility. For orientation: MIC90 means an inhibitory concentration at the 90% level, which refers to growth in some studies and to a panel of isolates in others. A higher MIC90 goes with lower susceptibility. By AUC is commonly meant concentration integrated over time.

The values above are taken from ChEMBL document CHEMBL1629623, “In vitro activity of the quinolone WCK 771 against recent U.S. hospital and community-acquired Staphylococcus aureus pathogens with various resistance types” (Antimicrob Agents Chemother, 2009).
